# Experimental data taken from patent US20050245527A1, “Nitrogen containing heterocyclic compounds and medicines containing the same” (priority 2002, published 2005).
# Key:
# anesthetized dogs = experiment: Evaluation of cardiovascular dynamics and electrocardiogram in anesthetized dogs; type: in vivo, dog; conditions: single administration; for HR / LVdP/dt / PQ interval / QTc interval / mAP: percent change vs value prior to administration
# Text: <Evaluation of Cardiovascular Dynamics and Electrocardiogram in Anesthetized Dogs> Method Anesthetized dogs were used for the experiment. After isolating the […], a microchip pressure transducer catheter was inserted therein, and the tip was situated near the aortic orifice and in the left ventricle, for measurement of the arterial pressure (AP) and left ventricular pressure (LVP). The LVP was differentiated using a differentiation unit, and the maximum value of the first derivative of the left ventricular pressure ([…] used as the index of the […] contractility. The heart rate (HR) was measured using an instantaneous heart rate counter, with the LVP waveforms as the trigger. A needle electrode was fixed to the right anterior limb and left and right posterior limbs, and a standard II-lead electrocardiogram was taken. The parameters were recorded on a recording sheet. The test substance was administered through the venous catheter inserted in the femoral vein. Administration of Test Substance and Recording Single Administration: The test substance was administered through the catheter for 1 minute. The electrocardiogram was recorded at 2 minutes after administration, and the change in the cardiovascular dynamic was recorded continuously for 10 minutes after the administration. After 10 minutes, the dose was increased and the recording was repeated. Continuous Intravenous Infusion: The test substance was administered through the catheter for a period of one minute, and then a sustained dose was administered by continuous intravenous infusion. The electrocardiogram was recorded at the 5 and 10 minute points, and the change in cardiovascular dynamic was recorded continuously for 10 minutes from the start of administration. After 10 minutes, the dose was increased and the recording was repeated. Analysis The HR, mean arterial pressure (mAP), LVdP/dtmax and electrocardiogram parameters (RR interval, PQ interval, QRS interval, QT interval) were read from the recording sheet. The QT interval was heart rate-corrected and represented as the QTc interval.
# sodium channels = type: cell-based; conditions: read-out: IC50 (μM), sodium channel-inhibiting activity; rat fetal cultured hippocampal neurons, SBFI fluorescence in the presence of 4-aminopyridine, 5 minutes after addition, 1 μM tetrodotoxin = 100%
# [1] = system: left saphenous nerve of rats (ectopic firing); experiment: Inhibition of ectopic firing; type: in vivo; conditions: Rattus norvegicus, iv; rats with cut left saphenous nerve, urethane anesthesia, compound via catheter in right cervical vein, number of firings in 10 seconds; read-out: Inhibition of ectopic firing (ID50)
# Experimental: <Inhibition of Ectopic Firing>
# (1) The inhibitory effect on ectopic firing was evaluated by the following method, with reference to Burchiel, K J., Exp. Neurol., 102, 249-253 (1988).
# (2) The left saphenous nerve of rats, in which ectopic firing was observed, was cut near the knee joint, and approximately 3 mm was cut off to avoid reattachment of the cut nerve. After more than a week, the left saphenous nerve was exposed under urethane (1 g/kg body weight) anesthesia, and the proximal part up to approximately 1 cm from the cut site was detached from the surrounding tissue. A catheter was inserted in the right cervical vein beforehand for administration of the compound.
# (3) The detached nerve was placed on a platinum hook electrode and wetted with liquid paraffin to avoid drying of the nerve. The electrode was connected to a microelectrode amplifier, and the change in potential was recorded from an oscilloscope through an A/D converter onto a computer. The recorded nerve firing was evaluated based on the number of firings in 10 seconds, using analyzing software (AcqKnowledge).
Structure (SMILES),IC50 (sodium channels) [µM],ED50 [1] [mg/kg],other results
CCN(CC)CCCN(c1ccccc1)C1Cc2ccccc2C1 [Aprindine],–,–,HR (anesthetized dogs; dose 2 mg/kg weight): −12.8%; LVdP/dt (anesthetized dogs; dose 2 mg/kg weight): −29%; PQ interval (anesthetized dogs; dose 2 mg/kg weight): 14.2%; QTc interval (anesthetized dogs; dose 2 mg/kg weight): 4.5%; mAP (anesthetized dogs; dose 2 mg/kg weight): −34.7%; HR (anesthetized dogs; dose 4 mg/kg weight): −19.2%; LVdP/dt (anesthetized dogs; dose 4 mg/kg weight): −47.5%; QTc interval (anesthetized dogs; dose 4 mg/kg weight): −0.4%; PQ interval (anesthetized dogs): 36.8%; mAP (anesthetized dogs): −47.7%; effects on the cardiovascular system (anesthetized dogs; summary of Tables 4 to 8): exhibited effects on the cardiovascular system
"Cc1ccc(-c2ccccc2)n1CC1(O)CCN(Cc2ccc[nH]c2=O)CC1 [Example 251, 3-[4-Hydroxy-4-(2-methyl-5-phenylpyrrol-1-yl)methyl-piperidino]methyl-1H-pyridin-2-one]",8.4,0.5 to 1,–
"Cc1ccsc1/C=C/C1CCN(Cc2ncc[nH]c2=O)CC1 [Example 157, (E)-3-[4-[2-(3-Methyl-2-thienyl)vinyl]piperidino]methyl-1H-pyrazin-2-one]",3.6,< 0.5,–
"COc1ccccc1CCC1CCN(Cc2ncc[nH]c2=O)C1.O=C(O)C(=O)O (stereo not drawn) [Example 135, 3-[3-[2-(2-Methoxyphenyl)ethyl]pyrrolidino]methyl-1H-pyrazin-2-one oxalate]",4,< 0.5,–
"Cc1ccccc1/C=C/C1CCN(Cc2ncc[nH]c2=O)CC1 [Example 171, (E)-3-[4-[2-(2-Methylphenyl)vinyl]piperidino]methyl-1H-pyrazin-2-one]",0.6,< 0.5,–
"O=c1cncc(CCN2CCC(CCc3ccccc3F)CC2)[nH]1 [Example 243, 6-[2-[4-[2-(2-Fluorophenyl)ethyl]piperidino]ethyl]-1H-pyrazin-2-one]",5.7,< 0.5,–
"O=c1[nH]ccnc1CN1CCC(CCc2ccccc2F)(COc2ccccc2F)CC1 [Example 224, 3-[4-(2-Fluorophenoxymethyl)-4-[2-(2-fluorophenyl)ethyl]piperidino]methyl-1H-pyrazin-2-one]",1.6,0.5 to 1,–
"O=C(c1ccccc1F)N(C(=O)c1ccccc1F)C1(O)CCN(Cc2ncc[nH]c2=O)CC1 [Example 214, 2-Fluoro-N-(2-fluorobenzoyl)-N-[4-hydroxy-1-(3-oxo-3,4-dihydro-2-pyrazinylmethyl)piperidin-4-yl]benzamide]",8.7,0.5 to 1,–
"O=C(CC1CCN(Cc2ncc[nH]c2=O)CC1)c1ccccc1Cl [Example 174, 3-[4-[2-(2-Chlorophenyl)-2-oxoethyl]piperidino]methyl-1H-pyrazin-2-one]",3.6,< 0.5,–
"Cc1ccccc1CCC1(O)CCN(Cc2ncc[nH]c2=O)CC1 [Example 222, 3-[4-Hydroxy-4-[2-(2-methylphenyl)ethyl]piperidino]methyl-1H-pyrazin-2-one]",2.5,0.5 to 1,–
"O=c1[nH]ccnc1CN1CCC(/C=C/c2sccc2Cl)CC1 [Example 168, (E)-3-[4-[2-(3-Chloro-2-thienyl)vinyl]piperidino]methyl-1H-pyrazin-2-one]",2.1,0.5 to 1,–
"O=c1[nH]ccnc1CN1CCC(COc2cccc(F)c2)CC1 [Example 162, 3-[4-(3-Fluorophenoxymethyl)piperidino]methyl-1H-pyrazin-2-one]",4.6,0.5 to 1,–
"CC(c1ncc[nH]c1=O)N1CCC(C(=O)Cc2ccccc2C(F)(F)F)CC1.O=C(O)C(=O)O (stereo not drawn) [Example 394, 3-[1-[4-[2-[2-(Trifluoromethyl)phenyl]acetyl]piperidino]ethyl]-1H-pyrazin-2-one oxalate]",2.8,< 0.5,–
"O=C(Cc1ccccc1F)C1CCCN(Cc2ncc[nH]c2=O)C1 (stereo not drawn) [Example 208, 3-[3-[2-(2-Fluorophenyl)acetyl]piperidino]methyl-1H-pyrazin-2-one]",5.5,0.5 to 1,–
"O=C(O)C(=O)O.O=c1[nH]ccnc1CN1CCC(COc2ccccc2F)C1 (stereo not drawn) [Example 132, 3-[3-(2-Fluorophenoxymethyl)pyrrolidino]methyl-1H-pyrazin-2-one oxalate]",6.2,0.5 to 1,–
"COc1ccccc1OCC1CCN(Cc2ncc[nH]c2=O)CC1 [Example 143, 3-[4-(2-Methoxyphenoxymethyl)piperidino]methyl-1H-pyrazin-2-one]",3.1,< 0.5,–
"O=c1[nH]cc(Cl)cc1CN1CCC(O)(COc2ccccc2F)CC1 [Example 254, 5-Chloro-3-[4-hydroxy-4-(2-fluorophenoxymethyl)piperidino]methyl-1H-pyridin-2-one]",8.9,0.5 to 1,–
"O=c1[nH]cccc1CN1CCC(CO)(CCc2ccccc2)CC1 [Example 256, 3-[4-Hydroxymethyl-4-(2-phenylethyl)piperidino]methyl-1H-pyridin-2-one]",5.8,0.5 to 1,–
"O=c1[nH]c2ccccc2nc1CN1CCC(COc2ccccc2F)CC1 [Example 204, 3-[4-(2-Fluorophenoxymethyl)piperidino]methyl-1H-quinoxalin-2-one]",8.1,0.5 to 1,–
"CC1(C(=O)Cc2ccccc2C(F)(F)F)CCN(Cc2ncc[nH]c2=O)CC1 [Example 373, 3-[4-Methyl-4-[2-[2-(trifluoromethyl)phenyl]acetyl]piperidino]methyl-1H-pyrazin-2-one]",1.6,< 0.5,–
"O=c1[nH]ccnc1CN1CCC(COc2ccccc2C(F)(F)F)CC1 [Example 164, 3-[4-[2-(Trifluoromethyl)phenoxymethyl]piperidino]methyl-1H-pyrazin-2-one]",3.3,< 0.5,–
"O=c1[nH]ccnc1CN1CCC(COc2ccccc2)CC1 [Example 198, 3-[4-(Phenoxymethyl)piperidino]methyl-1H-pyrazin-2-one]",1.6,< 0.5,–
"COc1ccccc1C(=O)CC1CCN(Cc2ncc[nH]c2=O)CC1 [Example 145, 3-[4-[2-(2-Methoxyphenyl)-2-oxoethyl]piperidino]methyl-1H-pyrazin-2-one]",9.5,0.5 to 1,–
"O=c1cncc(CCN2CCC(COc3ccccc3Cl)CC2)[nH]1 [Example 235, 6-[2-[4-(2-Chlorophenoxymethyl)piperidino]ethyl]-1H-pyrazin-2-one]",5,< 0.5,–
"O=c1cncc(CCN2CCC(COc3ccc(F)cc3F)CC2)[nH]1 [Example 239, 6-[2-[4-(2,4-Difluorophenoxymethyl)piperidino]ethyl]-1H-pyrazin-2-one]",9.1,0.5 to 1,–
"O=c1[nH]ccnc1CN1CCC(c2nc(-c3ccccc3F)no2)CC1 [Example 187, 3-[4-[3-(2-Fluorophenyl)-1,2,4-oxadiazol-5-yl]piperidino]methyl-1H-pyrazin-2-one]",3.5,0.5 to 1,–
"O=c1[nH]ccnc1CN1CCC(COc2ccccc2OC(F)(F)F)CC1 [Example 167, 3-[4-[2-(Trifluoromethoxy)phenoxymethyl]piperidino]methyl-1H-pyrazin-2-one]",2.3,< 0.5,–
"Cc1cccc(CC(=O)C2CCN(Cc3ncc[nH]c3=O)CC2)c1 [Example 192, 3-[4-[2-(3-Methylphenyl)acetyl]piperidino]methyl-1H-pyrazin-2-one]",3.8,0.5 to 1,–
"C[C@H]1C[C@@H](C(=O)Cc2ccccc2F)CCN1Cc1ncc[nH]c1=O (relative stereo) [Example 415, cis-3-[4-[2-(2-Fluorophenyl)acetyl]-2-methylpiperidino]methyl-1H-pyrazin-2-one]",4.6,< 0.5,–
"O=c1[nH]ccnc1CN1CCC(CCc2cccc3ccoc23)CC1 [Example 146, 3-[4-[2-(Benzofuran-7-yl)ethyl]piperidino]methyl-1H-pyrazin-2-one]",2,< 0.5,–
